Data from patent publication US11746100B2 (GLOBAL BLOOD THERAPEUTICS, INC., priority 2020, dated 2023).

Target: T1, human ferroportin (Homo sapiens, UniProt Q9NP59)
T1 construct: luciferase reporter (read with the Nano-Glo Luciferase Assay System); expressed in transfected cells; host or cells: CHO cells, stably transfected, expression induced with doxycycline
T1 sequence (Q9NP59 1-571): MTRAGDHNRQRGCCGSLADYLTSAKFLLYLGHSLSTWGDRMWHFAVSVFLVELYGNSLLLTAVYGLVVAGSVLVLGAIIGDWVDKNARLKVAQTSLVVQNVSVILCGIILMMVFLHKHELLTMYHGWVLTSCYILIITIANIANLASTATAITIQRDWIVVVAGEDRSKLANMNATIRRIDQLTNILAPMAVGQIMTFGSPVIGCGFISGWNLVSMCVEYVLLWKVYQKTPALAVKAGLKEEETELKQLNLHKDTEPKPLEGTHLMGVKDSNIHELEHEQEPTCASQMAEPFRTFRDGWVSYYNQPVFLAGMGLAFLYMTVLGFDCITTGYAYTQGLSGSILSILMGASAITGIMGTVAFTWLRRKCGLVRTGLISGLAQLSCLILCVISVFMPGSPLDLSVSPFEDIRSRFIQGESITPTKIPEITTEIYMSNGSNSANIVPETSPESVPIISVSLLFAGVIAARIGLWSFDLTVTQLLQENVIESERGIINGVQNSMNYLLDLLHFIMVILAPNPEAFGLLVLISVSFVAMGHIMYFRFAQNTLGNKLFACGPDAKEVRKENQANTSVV
Assay: Biological in-vitro ferroportin internalization assay (luciferase reporter)
Assay type: cell-based
Settings: average pEC50; stably-transfected CHO cell line expressing human ferroportin tagged to a luciferase reporter; 6 h incubation with test compound
Method in brief: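 Read-out is Nano-Glo luciferase signal after 6 h compound exposure, with average pEC50 derived. Cells are a stable CHO line carrying luciferase-tagged human ferroportin, pre-loaded 24 h with ferric ammonium citrate and doxycycline-induced for 24 h.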

## Cc1ccc(NC(=O)CN(C)c2nc(-c3cc(OC4COC4)ccn3)nc3c2CCC3)cc1 [Compound 326, 2-[methyl({2-[4-(oxetan-3-yloxy)pyridin-2-yl]-5H,6H,7H-cyclopenta[d]pyrimidin-4-yl})amino]-N-(4-methylphenyl)acetamide]
  pEC50: 7.9

## CN(C)CCSc1ccnc(-c2nc3c(c(N(C)CC(=O)NC(C)(C)C)n2)CCC3)c1 [Compound 499, N-tert-butyl-2-{[2-(4-{[2-(dimethylamino)ethyl]sulfanyl}pyridin-2-yl)-5H,6H,7H-cyclopenta[d]pyrimidin-4-yl](methyl)amino}acetamide]
  pEC50: 8.2

## CN(CC(=O)Nc1cnn(C)c1)c1nc(-c2cc(OCC3CC3)ccn2)nc2c1CCC2 [Compound 215, 2-({2-[4-(cyclopropylmethoxy)pyridin-2-yl]-5H,6H,7H-cyclopenta[d]pyrimidin-4-yl}(methyl)amino)-N-(1-methyl-1H-pyrazol-4-yl)acetamide]
  pEC50: 7.5

## COc1ccnc(-c2nc3c(c(N(C)CC(=O)N[C@@H]4CCC[C@@H]4O)n2)CCC3)c1 (relative stereo) [Compound 170, N-[(1R,2S)-2-hydroxycyclopentyl]-2-{[2-(4-methoxypyridin-2-yl)-5H,6H,7H-cyclopenta[d]pyrimidin-4-yl](methyl)amino}acetamide]
  pEC50: 7.8

## COc1ccnc(-c2nc3c(c(N(C)CC(=O)N(C)C)n2)CCC3)c1 [Compound 157, 2-{[2-(4-methoxypyridin-2-yl)-5H,6H,7H-cyclopenta[d]pyrimidin-4-yl](methyl)amino}-N,N-dimethylacetamide]
  pEC50: 7.3

## COc1ccnc(-c2nc3c(c(N(C)[C@H]4CCN(c5ccccc5)C4=O)n2)CCC3)c1 [Compound 205, (3S)-3-{[2-(4-methoxypyridin-2-yl)-5H,6H,7H-cyclopenta[d]pyrimidin-4-yl](methyl)amino}-1-phenylpyrrolidin-2-one]
  pEC50: 7.5

## CN(CC(=O)NC1(C(F)(F)F)CC1)c1nc(-c2cn(C)cn2)nc2c1CCC2 [Compound 111, 2-{methyl[2-(1-methyl-1H-imidazol-4-yl)-5H,6H,7H-cyclopenta[d]pyrimidin-4-yl]amino}-N-[1-(trifluoromethyl)cyclopropyl]acetamide]
  pEC50: 7.2

## CN(C)CC(C)(C)Oc1ccnc(-c2nc3c(c(N(C)CC(=O)NC(C)(C)C)n2)CCC3)c1 [Compound 407, N-tert-butyl-2-{[2-(4-{[1-(dimethylamino)-2-methylpropan-2-yl]oxy}pyridin-2-yl)-5H,6H,7H-cyclopenta[d]pyrimidin-4-yl](methyl)amino}acetamide]
  pEC50: 6.6

## COCC(C)(C)NC(=O)CN(C)c1nc(-c2cc(OC)ccn2)nc2c1CCC2 [Compound 139, N-(1-methoxy-2-methylpropan-2-yl)-2-{[2-(4-methoxypyridin-2-yl)-5H,6H,7H-cyclopenta[d]pyrimidin-4-yl](methyl)amino}acetamide]
  pEC50: 7.5

## COc1ccnc(-c2nc3c(c(N(C)CC(=O)NCCN(C)C)n2)CCC3)c1 [Compound 476, N-[2-(dimethylamino)ethyl]-2-{[2-(4-methoxypyridin-2-yl)-5H,6H,7H-cyclopenta[d]pyrimidin-4-yl](methyl)amino}acetamide]
  pEC50: 6.7

## COc1ccnc(-c2nc3c(c(N(C)CC(=O)NCCO)n2)CCC3)c1 [Compound 133, N-(2-hydroxyethyl)-2-{[2-(4-methoxypyridin-2-yl)-5H,6H,7H-cyclopenta[d]pyrimidin-4-yl](methyl)amino}acetamide]
  pEC50: 7

## CN(CC(=O)NC1(C)CCC1)c1nc(-c2cc(OCCO)ccn2)nc2c1CCC2 [Compound 376, 2-({2-[4-(2-hydroxyethoxy)pyridin-2-yl]-5H,6H,7H-cyclopenta[d]pyrimidin-4-yl}(methyl)amino)-N-(1-methylcyclobutyl)acetamide]
  pEC50: 8

## CN(CC(=O)NC(C)(C)C)c1nc(-c2cc(O[C@H]3CCOC3)ccn2)nc2c1CCC2 [Compound 317, N-tert-butyl-2-[methyl(2-{4-[(3S)-oxolan-3-yloxy]pyridin-2-yl}-5H,6H,7H-cyclopenta[d]pyrimidin-4-yl)amino]acetamide]
  pEC50: 7.9

## CN(CC(=O)NC1CCCC1)c1nc(-c2cc(OCC(C)(C)O)ccn2)nc2c1CCC2 [Compound 421, N-cyclopentyl-2-({2-[4-(2-hydroxy-2-methylpropoxy)pyridin-2-yl]-5H,6H,7H-cyclopenta[d]pyrimidin-4-yl}(methyl)amino)acetamide]
  pEC50: 8.2

## COc1ccc(N(C)C(=O)CN(C)c2nc(-c3cc(OCCO)ccn3)nc3c2CCC3)cc1 [Compound 334, 2-({2-[4-(2-hydroxyethoxy)pyridin-2-yl]-5H,6H,7H-cyclopenta[d]pyrimidin-4-yl}(methyl)amino)-N-(4-methoxyphenyl)-N-methylacetamide]
  pEC50: 7.2

## CC(C)NC(=O)[C@@H](C)N(C)c1nc(-c2cc(OCC(C)(C)O)ccn2)nc2c1CCC2 [Compound 453, (2R)-2-({2-[4-(2-hydroxy-2-methylpropoxy)pyridin-2-yl]-5H,6H,7H-cyclopenta[d]pyrimidin-4-yl}(methyl)amino)-N-(propan-2-yl)propanamide]
  pEC50: 8.1

## O=C(CNc1nc(-c2ccccn2)nc2c1CCC2)Nc1ccccc1F [Compound 6, N-(2-fluorophenyl)-2-{[2-(pyridin-2-yl)-5H,6H,7H-cyclopenta[d]pyrimidin-4-yl]amino}acetamide]
  pEC50: 6.5

## CN(CC(=O)Nc1cccc(F)c1)c1nc(-c2cc(OCCN3CCCC3)ccn2)nc2c1CCC2 [Compound 252, N-(3-fluorophenyl)-2-[methyl(2-{4-[2-(pyrrolidin-1-yl)ethoxy]pyridin-2-yl}-5H,6H,7H-cyclopenta[d]pyrimidin-4-yl)amino]acetamide]
  pEC50: 7.9

## COc1ccc(NC(=O)CN(C)c2nc(-c3cc(OC(F)F)ccn3)nc3c2CCC3)nc1 [Compound 217, 2-({2-[4-(difluoromethoxy)pyridin-2-yl]-5H,6H,7H-cyclopenta[d]pyrimidin-4-yl}(methyl)amino)-N-(5-methoxypyridin-2-yl)acetamide]
  pEC50: 6.9

## CN(CC(=O)Nc1cnn(C)c1)c1nc(-c2cn(C)cn2)nc2c1CCC2 [Compound 220, N-(1-methyl-1H-pyrazol-4-yl)-2-{methyl[2-(1-methyl-1H-imidazol-4-yl)-5H,6H,7H-cyclopenta[d]pyrimidin-4-yl]amino}acetamide]
  pEC50: 7

## CC(C)NC(=O)CN(C)c1nc(-c2cc(OCCN3CCN(C)CC3)ccn2)nc2c1CCC2 [Compound 432, 2-[methyl(2-{4-[2-(4-methylpiperazin-1-yl)ethoxy]pyridin-2-yl}-5H,6H,7H-cyclopenta[d]pyrimidin-4-yl)amino]-N-(propan-2-yl)acetamide]
  pEC50: 7.5

## CN(CC(=O)NC(C)(C)C)c1nc(-c2cc(OC(C)(C)CO)ccn2)nc2c1CCC2 [Compound 425, N-tert-butyl-2-[(2-{4-[(1-hydroxy-2-methylpropan-2-yl)oxy]pyridin-2-yl}-5H,6H,7H-cyclopenta[d]pyrimidin-4-yl)(methyl)amino]acetamide]
  pEC50: 8.3

## Cc1ccc(NC(=O)CN(C)c2nc(-c3cc4cn[nH]c4cn3)nc3c2CCC3)cn1 [Compound 267, 2-[methyl(2-{1H-pyrazolo[3,4-c]pyridin-5-yl}-5H,6H,7H-cyclopenta[d]pyrimidin-4-yl)amino]-N-(6-methylpyridin-3-yl)acetamide]
  pEC50: 7.1

## COc1ccnc(-c2nc3c(c(N(C)CC(=O)N[C@@H]4CCCC[C@@H]4O)n2)CCC3)c1 (stereo in doubt) [Compound 168, N-[(1R,2S)-2-hydroxycyclohexyl]-2-{[2-(4-methoxypyridin-2-yl)-5H,6H,7H-cyclopenta[d]pyrimidin-4-yl](methyl)amino}acetamide]
  pEC50: 7.3

## COc1ccc(NC(=O)[C@@H](C)N(C)c2nc(-c3cc(OC4COC4)ccn3)nc3c2CCC3)cn1 [Compound 312, (2R)-N-(6-methoxypyridin-3-yl)-2-[methyl({2-[4-(oxetan-3-yloxy)pyridin-2-yl]-5H,6H,7H-cyclopenta[d]pyrimidin-4-yl})amino]propanamide]
  pEC50: 7.7

## CN(CC(=O)Nc1cn(C)cn1)c1nc(-c2cc3ccccc3cn2)nc2c1CCC2 [Compound 236, 2-{[2-(isoquinolin-3-yl)-5H,6H,7H-cyclopenta[d]pyrimidin-4-yl](methyl)amino}-N-(1-methyl-1H-imidazol-4-yl)acetamide]
  pEC50: 7.4

## CN(CC(=O)NC(C)(C)C)c1nc(-c2cocn2)nc2c1CCC2 [Compound 163, N-tert-butyl-2-{methyl[2-(1,3-oxazol-4-yl)-5H,6H,7H-cyclopenta[d]pyrimidin-4-yl]amino}acetamide]
  pEC50: 5.4

## COc1ccc(NC(=O)CN(C)c2nc(-c3cc4ccccc4cn3)nc3c2CCC3)nc1 [Compound 233, 2-{[2-(isoquinolin-3-yl)-5H,6H,7H-cyclopenta[d]pyrimidin-4-yl](methyl)amino}-N-(5-methoxypyridin-2-yl)acetamide]
  pEC50: 7.4
